In the supplement of paper PMC10307832:

Columns and labels:
Experiment in all cases: relative viability (nuclei count vs DMSO), 5 days (fraction); higher = more cells survive
DM3189 + Crizotinib = compound: C1CN(CCN1)C2=CC=C(C=C2)C3=CN4C(=C(C=N4)C5=CC=NC6=CC=CC=C56)N=C3 [DM3189] + C[C@@H](Oc1cc(-c2cnn(C3CCNCC3)c2)cnc1N)c1c(Cl)ccc(F)c1Cl [Crizotinib] (partner 1 µM)
How it was run: (§1)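 Dosing by pin tool came one day after lung cancer cell lines were seeded in 1536-well plates, using either one drug or a fixed anchor-drug dose plus five library-drug doses (not always all listed) in √10 steps. After 5 days, nuclei were counted on 4× images. Relative viability is treated-well nuclei count divided by vehicle-well nuclei count, and values are medians of duplicate plates.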

DM3189 + AZD7762 = compound: C1CN(CCN1)C2=CC=C(C=C2)C3=CN4C(=C(C=N4)C5=CC=NC6=CC=CC=C56)N=C3 [DM3189] + NC(=O)Nc1cc(-c2cccc(F)c2)sc1C(=O)N[C@H]1CCCNC1 [AZD7762] (partner 0.2 µM)
How it was run: as §1

DM3189 + Olaparib = compound: C1CN(CCN1)C2=CC=C(C=C2)C3=CN4C(=C(C=N4)C5=CC=NC6=CC=CC=C56)N=C3 [DM3189] + O=C(c1cc(Cc2n[nH]c(=O)c3ccccc23)ccc1F)N1CCN(C(=O)C2CC2)CC1 [Olaparib] (partner 8 µM)
How it was run: as §1

DM3189 + Pictilisib = compound: C1CN(CCN1)C2=CC=C(C=C2)C3=CN4C(=C(C=N4)C5=CC=NC6=CC=CC=C56)N=C3 [DM3189] + CS(=O)(=O)N1CCN(Cc2cc3nc(-c4cccc5[nH]ncc45)nc(N4CCOCC4)c3s2)CC1 [Pictilisib] (partner 1 µM)
How it was run: as §1

DM3189 + Trametinib = compound: C1CN(CCN1)C2=CC=C(C=C2)C3=CN4C(=C(C=N4)C5=CC=NC6=CC=CC=C56)N=C3 [DM3189] + CC(=O)Nc1cccc(-n2c(=O)n(C3CC3)c(=O)c3c(Nc4ccc(I)cc4F)n(C)c(=O)c(C)c32)c1 [Trametinib] (partner 0.02 µM)
How it was run: as §1

Cell Line: HCC-15
- relative viability (DM3189 + Crizotinib; first compound 0.08 µM): 0.883
- relative viability (DM3189 + Crizotinib; first compound 0.253 µM): 0.763
- relative viability (DM3189 + Crizotinib; first compound 0.8 µM): 0.824
- relative viability (DM3189 + Crizotinib; first compound 2.53 µM): 0.685
- relative viability (DM3189 + AZD7762; first compound 0.08 µM): 1.19
- relative viability (DM3189 + AZD7762; first compound 0.253 µM): 1.14
- relative viability (DM3189 + AZD7762; first compound 0.8 µM): 1.08
- relative viability (DM3189 + AZD7762; first compound 2.53 µM): 1.24
- relative viability (DM3189 + Olaparib; first compound 0.08 µM): 0.737
- relative viability (DM3189 + Olaparib; first compound 0.253 µM): 0.724
- relative viability (DM3189 + Olaparib; first compound 0.8 µM): 0.518
- relative viability (DM3189 + Olaparib; first compound 2.53 µM): 0.591
- relative viability (DM3189 + Pictilisib; first compound 0.08 µM): 0.764
- relative viability (DM3189 + Pictilisib; first compound 0.253 µM): 0.695
- relative viability (DM3189 + Pictilisib; first compound 0.8 µM): 0.584
- relative viability (DM3189 + Pictilisib; first compound 2.53 µM): 0.661
- relative viability (DM3189 + Trametinib; first compound 0.08 µM): 0.447
- relative viability (DM3189 + Trametinib; first compound 0.253 µM): 0.431
- relative viability (DM3189 + Trametinib; first compound 0.8 µM): 0.406
- relative viability (DM3189 + Trametinib; first compound 2.53 µM): 0.414

Cell Line: NCI-H2087
- relative viability (DM3189 + Crizotinib; first compound 0.08 µM): 0.894
- relative viability (DM3189 + Crizotinib; first compound 0.253 µM): 0.695
- relative viability (DM3189 + Crizotinib; first compound 0.8 µM): 0.788
- relative viability (DM3189 + Crizotinib; first compound 2.53 µM): 0.79
- relative viability (DM3189 + AZD7762; first compound 0.08 µM): 1.42
- relative viability (DM3189 + AZD7762; first compound 0.253 µM): 1.23
- relative viability (DM3189 + AZD7762; first compound 0.8 µM): 1.38
- relative viability (DM3189 + AZD7762; first compound 2.53 µM): 1.1
- relative viability (DM3189 + Olaparib; first compound 0.08 µM): 0.511
- relative viability (DM3189 + Olaparib; first compound 0.253 µM): 0.563
- relative viability (DM3189 + Olaparib; first compound 0.8 µM): 0.505
- relative viability (DM3189 + Olaparib; first compound 2.53 µM): 0.316
- relative viability (DM3189 + Pictilisib; first compound 0.08 µM): 1.06
- relative viability (DM3189 + Pictilisib; first compound 0.253 µM): 0.808
- relative viability (DM3189 + Pictilisib; first compound 0.8 µM): 0.675
- relative viability (DM3189 + Pictilisib; first compound 2.53 µM): 0.818
- relative viability (DM3189 + Trametinib; first compound 0.08 µM): 0.24
- relative viability (DM3189 + Trametinib; first compound 0.253 µM): 0.17
- relative viability (DM3189 + Trametinib; first compound 0.8 µM): 0.228
- relative viability (DM3189 + Trametinib; first compound 2.53 µM): 0.219

Cell Line: BEN
- relative viability (DM3189 + Crizotinib; first compound 0.08 µM): 0.881
- relative viability (DM3189 + Crizotinib; first compound 0.253 µM): 0.865
- relative viability (DM3189 + Crizotinib; first compound 0.8 µM): 0.944
- relative viability (DM3189 + Crizotinib; first compound 2.53 µM): 0.987
- relative viability (DM3189 + AZD7762; first compound 0.08 µM): 0.76
- relative viability (DM3189 + AZD7762; first compound 0.253 µM): 0.646
- relative viability (DM3189 + AZD7762; first compound 0.8 µM): 0.702
- relative viability (DM3189 + AZD7762; first compound 2.53 µM): 0.738
- relative viability (DM3189 + Olaparib; first compound 0.08 µM): 1.13
- relative viability (DM3189 + Olaparib; first compound 0.253 µM): 1.12
- relative viability (DM3189 + Olaparib; first compound 0.8 µM): 0.852
- relative viability (DM3189 + Olaparib; first compound 2.53 µM): 1.08
- relative viability (DM3189 + Pictilisib; first compound 0.08 µM): 0.553
- relative viability (DM3189 + Pictilisib; first compound 0.253 µM): 0.601
- relative viability (DM3189 + Pictilisib; first compound 0.8 µM): 0.617
- relative viability (DM3189 + Pictilisib; first compound 2.53 µM): 0.581
- relative viability (DM3189 + Trametinib; first compound 0.08 µM): 0.982
- relative viability (DM3189 + Trametinib; first compound 0.253 µM): 1.01
- relative viability (DM3189 + Trametinib; first compound 0.8 µM): 1.11
- relative viability (DM3189 + Trametinib; first compound 2.53 µM): 1.21
